# From patent US20070093520A1, “Method of treatment of diarrhea-predominant irritable bowel syndrome in a subject” (priority 2005, published 2007)
# Tested on: diarrhea-predominant IBS subjects
# Format: in vivo, human
# Details: TEAE incidence, 2 mg, Safety Population
# Method: The study was performed in approximately 150 study centers. Approximately 1600 eligible subjects were to be given cilansetron 2 mg TID. At Visit 1, pre-treatment assessments were conducted. […] Subjects were to return to the study site one month later for Visit 3 (Day 31) for their first interim assessment. […] All subjects who discontinued from the study were to have the same post-study assessments required at Visit 7 performed at their early termination visit. […]
# Stool specimens were analyzed at every visit for occult blood. An independent GERB had been established to provide advice on GI AEs during the course of the study.
# Adverse events were assessed at Baseline, at each clinic visit, and at the end of the study (Month 12 or the early termination visit). All AEs, which occurred during the study were followed up in accordance with good medical practice until resolved or judged no longer clinically significant, or if a condition was chronic, until fully characterized. Adverse events could occur in the specified follow-up period and, regardless of the interval since the last administration of the study medication, were treated in the same manner as an AE which occurred during the treatment with study medication. Each AE was evaluated for duration, severity, seriousness, and causal relationship to the investigational drug. The action taken and the outcome were also recorded.
# Specifically, subjects who were lost to follow-up and had no post-Baseline contact with the site were excluded from the Safety population. The subjects who discontinued from the study due to lost to follow-up were identified based on the information collected on the study termination CRF page.
# After the pretreatment assessment at Visit 1 (Days […] to −3), subjects were to return to the study site for a Baseline assessment and start the treatment at Visit 2 (Day 1).
# For the by time-interval analyses of disposition, prevalence of AEs, and of markedly abnormal and predefined changes in laboratory values, vital signs, and ECGs, the following interval windows were used:
# Adverse events that were already present prior to the first dose of cilansetron study medication but increased in severity afterwards were considered as treatment-emergent.
# The 5% cutoff point was based on the incidence within higher level terms.
# Subjects were counted at most once for each primary system organ class and preferred term. Serious AEs that resolved prior to receiving study medication or occurred more than 30 days after the last dose of study medication were not included in the incidence tables. A listing of all SAEs is presented; SAEs with onset prior to receiving study medication or more than 30 days after discontinuation of study medication were flagged. The listing presents lower level term and preferred term of the SAE, severity, action taken, outcome, and relationship of the SAE, start and stop date of the SAE, study day of onset of the SAE, age, race, and sex.
structure (smiles),measurement,setting,value
"Cc1nccn1C[C@H]1CCc2c(c3cccc4c3n2CCC4)C1=O [cilansetron, (R)-(−)-4,5,6,8,9,10-hexahydro-10-[(2-methyl-1H-imidazol-1-yl)methyl]-11H-pyrido-[3,2,1-jk]-carbazol-11-one]",Limb Injuries NEC (Incl Traumatic Amputation),HLT,4 (<1%) n (%)
same,Lower Limb Fractures and Dislocations,HLT,4 (<1%) n (%)
same,Menopausal Effects NEC*,HLT,2 (<1%) n (%)
same,Menopausal Effects on the Genitourinary Tract*,HLT,1 (<1%) n (%)
same,Menstruation and Uterine Bleeding NEC*,HLT,3 (<1%) n (%)
same,Menstruation with Decreased Bleeding*,HLT,4 (<1%) n (%)
same,Menstruation with Increased Bleeding*,HLT,2 (<1%) n (%)
same,Mental Disorders NEC,HLT,1 (<1%) n (%)
same,Metabolic Bone Disorders,HLT,4 (<1%) n (%)
same,Mood Alterations with Depressive Symptoms,HLT,1 (<1%) n (%)
same,Muscle Pains,HLT,12 (<1%) n (%)
same,Muscle Related Signs and Symptoms NEC,HLT,8 (<1%) n (%)
same,"Muscle, Tendon and Ligament Injuries",HLT,14 (<1%) n (%)
same,Myocardial Disorders NEC,HLT,2 (<1%) n (%)
same,Nasal Congestion and Inflammations,HLT,10 (<1%) n (%)
same,Nasal Disorders NEC,HLT,5 (<1%) n (%)
same,Non-Site Specific Injuries NEC,HLT,10 (<1%) n (%)
same,Non-Site Specific Procedural Complications,HLT,5 (<1%) n (%)
same,Oedema NEC,HLT,1 (<1%) n (%)
same,Osteoarthropathies,HLT,4 (<1%) n (%)
same,Ovarian and Fallopian Tube Cysts and Neoplasms*,HLT,2 (<1%) n (%)
same,Pain and Discomfort NEC,HLT,20 (1%) n (%)
same,Panic Disorders,HLT,4 (<1%) n (%)
same,Papulosquamous Conditions,HLT,6 (<1%) n (%)
same,Paranasal Sinus Disorders (Excl Infections and Neoplasms),HLT,6 (<1%) n (%)
same,Parasomnias,HLT,2 (<1%) n (%)
same,Pelvic Prolapse*,HLT,2 (<1%) n (%)
same,Photosensitivity Conditions,HLT,1 (<1%) n (%)
same,Potassium Imbalance,HLT,4 (<1%) n (%)
same,"Prostatic signs, Symptoms and Disorders NEC*",HLT,4 (<1%) n (%)
same,Pruritus NEC,HLT,14 (<1%) n (%)
same,Purine Metabolism Disorders NEC,HLT,1 (<1%) n (%)
same,"Rashes, Eruptions and Exanthems NEC",HLT,13 (<1%) n (%)
same,Rate and Rhythm Disorders NEC,HLT,8 (<1%) n (%)
same,Renal Lithiasis,HLT,2 (<1%) n (%)
same,Renal Neoplasms,HLT,1 (<1%) n (%)
same,Reproductive Tract Disorders NEC (Excl Neoplasms),HLT,1 (<1%) n (%)
same,Reproductive Tract Signs and Symptoms NEC,HLT,2 (<1%) n (%)
same,Respiratory Tract Disorders NEC,HLT,1 (<1%) n (%)
same,Rheumatoid Arthropathies,HLT,2 (<1%) n (%)
same,Rosaceas,HLT,1 (<1%) n (%)
same,Scalar Conditions,HLT,1 (<1%) n (%)
same,Sebaceous Gland Disorders,HLT,1 (<1%) n (%)
same,Sexual Desire Disorders,HLT,2 (<1%) n (%)
same,Site Specific Injuries NEC,HLT,17 (1%) n (%)
same,Skin Injuries and Mechanical Dermatoses,HLT,3 (<1%) n (%)
same,Skin Neoplasms Benign,HLT,1 (<1%) n (%)
same,Skin Preneoplastic Conditions NEC,HLT,1 (<1%) n (%)
same,Skin and Subcutaneous Tissue Ulcerations,HLT,1 (<1%) n (%)
same,Sleep Disorders NEC,HLT,2 (<1%) n (%)
same,Sodium Imbalance,HLT,1 (<1%) n (%)
same,Soft Tissue Disorders NEC,HLT,6 (<1%) n (%)
same,Spondyloarthropathies,HLT,2 (<1%) n (%)
same,Structural and Obstructive Urethral Disorders (Excl Congenital),HLT,1 (<1%) n (%)
same,Supraventricular Arrhythmias,HLT,18 (1%) n (%)
same,Tendon Disorders,HLT,3 (<1%) n (%)
same,Thermal Burns,HLT,1 (<1%) n (%)
same,Thoracic Cage Fractures and Dislocations,HLT,2 (<1%) n (%)
same,Total Fluid Volume Increased,HLT,1 (<1%) n (%)
same,Upper Limb Fractures and Dislocations,HLT,7 (<1%) n (%)
same,Upper Respiratory Tract Signs and Symptoms,HLT,36 (2%) n (%)
same,Urinary Abnormalities,HLT,8 (<1%) n (%)
same,Urinary Tract Lithiasis (Excl Renal),HLT,2 (<1%) n (%)
same,Urinary Tract Signs and Symptoms NEC,HLT,8 (<1%) n (%)
same,Urticarias,HLT,4 (<1%) n (%)
same,Ventricular Arrhythmias and Cardiac Arrest,HLT,3 (<1%) n (%)
same,Water Soluble Vitamin Deficiencies,HLT,2 (<1%) n (%)
same,Connective Tissue Disorders,HLT (skin SOC),1 (<1%) n (%)
same,Abrasion NOS,PT,1 (<1%) n (%)
same,Acne Aggravated,PT,1 (<1%) n (%)
same,Acne NOS,PT,1 (<1%) n (%)
same,Acute Myocardial Infarction,PT,2 (<1%) n (%)
same,Affect Lability,PT,1 (<1%) n (%)
same,Alopecia,PT,1 (<1%) n (%)
same,Alopecia Areata,PT,1 (<1%) n (%)
same,Amenorrhoea NOS*,PT,2 (<1%) n (%)
same,Anal Injury,PT,1 (<1%) n (%)
same,Angina Pectoris,PT,2 (<1%) n (%)
same,Animal Bite,PT,2 (<1%) n (%)
same,Ankle Fracture,PT,1 (<1%) n (%)
same,Anorexia,PT,11 (<1%) n (%)
same,Anxiety,PT,12 (<1%) n (%)
same,Anxiety Aggravated,PT,1 (<1%) n (%)
same,Anxiety Disorder,PT,1 (<1%) n (%)
same,Appetite Decreased NOS,PT,2 (<1%) n (%)
same,Appetite Increased NOS,PT,2 (<1%) n (%)
same,Arthralgia,PT,29 (2%) n (%)
same,Arthralgia Aggravated,PT,1 (<1%) n (%)
same,Arthritis NOS,PT,1 (<1%) n (%)
same,Arthropod Sting,PT,2 (<1%) n (%)
same,Asthenia,PT,2 (<1%) n (%)
same,Asthma Aggravated,PT,2 (<1%) n (%)
same,Asthma NOS,PT,6 (<1%) n (%)
same,Atrial Fibrillation,PT,2 (<1%) n (%)
same,Atrial Fibrillation Aggravated,PT,1 (<1%) n (%)
same,Atrial Flutter,PT,1 (<1%) n (%)
same,Atrial Hypertrophy,PT,1 (<1%) n (%)
same,Atrioventricular Block NOS,PT,1 (<1%) n (%)
same,Axillary Pain,PT,1 (<1%) n (%)
same,Back Injury NOS,PT,3 (<1%) n (%)
same,Back Pain Aggravated,PT,2 (<1%) n (%)
same,Benign Prostatic Hyperplasia*,PT,3 (<1%) n (%)
same,Bloody Discharge,PT,1 (<1%) n (%)
same,Bradycardia NOS,PT,2 (<1%) n (%)
same,Breast Cyst*,PT,2 (<1%) n (%)
same,Breast Engorgement*,PT,1 (<1%) n (%)
same,Breast Pain*,PT,2 (<1%) n (%)
same,Breast Tenderness*,PT,1 (<1%) n (%)
same,Bundle Branch Block Right,PT,3 (<1%) n (%)
same,Bursitis,PT,1 (<1%) n (%)
same,Calculus Renal NOS,PT,2 (<1%) n (%)
same,Calculus Ureteric,PT,2 (<1%) n (%)
same,Catarrh,PT,2 (<1%) n (%)
